# Test system: Huh7 ET cells
# Experiment: not given
# Conditions: read-out: HCV replicon CC50, concentration reducing cell viability by 50%, 72 h
# Description: Both cell toxicity and HCV replicon inhibition assays were performed in triplicate in wells of a 96-well flat-bottom, white-wall plates (E&K Scientific, Santa Clara, CA) by the Drug Development Division, Southern Research Institute (SRI; Birmingham, AL). […] Prior to the assays, sub-confluent Huh7 ET cultures were seeded in wells of a 96-well plate. Following a 24 h incubation at 37°C in a 5% CO2 incubator, increasing concentrations of the compounds were added to the wells and incubation was continued for an additional 72 h. […] Human interferon α2b was used as a control. The cellular replicon-derived luciferase activity was measured using the Steady-Glo Luciferase Assay System (Promega, Fitchburg, WI) and a fluorescence spectrophotometer. Cytotoxicity of compounds was measured using the CytoTox-ONE Homogeneous Membrane Integrity Assay (Promega). The IC50 and IC90 values of the compounds (compound concentrations inhibiting the replicon by 50% and 90%, respectively) as well as CC50 and CC90 (compound concentration decreasing cell viability by 50% and 90%, respectively) were calculated using GraphPad Prism.
row,Compound,CC50 [µM]
1,Oc1ccccc1-c1nnc2sc3c(Cl)c4nn5c(-c6ccccc6O)nnc5sc4c(Cl)c3nn12 [Compound 4],> 100
2,Clc1ccc(Nc2nc(SCc3ccccc3)nc3n[nH]c(Cc4nc5ccccc5s4)c23)cc1 [Compound 5],> 100
3,COc1cc(C2C(C(=O)Nc3ccc(Cl)c(Cl)c3)=C(C)NC(C)=C2C(=O)Nc2ccc(Cl)c(Cl)c2)ccc1O [Compound 8],14.2
4,Cc1n[nH]c(=S)n1Nc1nc(SCc2ccccc2)nc2n[nH]c(Cc3nn[nH]n3)c12 [Compound 3],> 100

# Same assay, conditions: read-out: HCV replicon CC90, concentration reducing cell viability by 90%, 72 h
row,Compound,CC90 [µM]
1,Oc1ccccc1-c1nnc2sc3c(Cl)c4nn5c(-c6ccccc6O)nnc5sc4c(Cl)c3nn12 [Compound 4],> 100
2,Clc1ccc(Nc2nc(SCc3ccccc3)nc3n[nH]c(Cc4nc5ccccc5s4)c23)cc1 [Compound 5],> 100
3,COc1cc(C2C(C(=O)Nc3ccc(Cl)c(Cl)c3)=C(C)NC(C)=C2C(=O)Nc2ccc(Cl)c(Cl)c2)ccc1O [Compound 8],26.6
4,Cc1n[nH]c(=S)n1Nc1nc(SCc2ccccc2)nc2n[nH]c(Cc3nn[nH]n3)c12 [Compound 3],> 100

# Test system: NS3/4A A156T
# Experiment: not given
# Assay type: biochemical, HCV genotype 1b, strain HC-J4
# Conditions: fold change in IC50 for the mutant compared to WT
# Source text: (§1) Reagents were purchased from Sigma unless indicated otherwise. The FRET substrate Ac-DE-D(Edans)-EE-Abu-ψ-[COO]-AS-K(Dabsyl)-NH2, purified recombinant wild-type NS3/4A from HCV genotype 1b, strain HC-J4, and the mutants with the V36M, R155K, A156T, D168A and V170A resistance mutations were from AnaSpec (Fremont, CA). The NS3/4A construct represented the individual NS3 proteinase domain N-terminally fused with an NS4A co-factor and tagged with a 6xHis tag. […] Pyroglutamic acid-Arg-Thr-Lys-Arg-7-amino-4-methylcoumarin was from Peptides International (Louisville, KY). West Nile virus NS2B-NS3 proteinase (strain NY99) was expressed, purified and refolded to restore its functional activity as described earlier. The pET15b-Den2-CF40-Gly-NS3pro 185 plasmid encoding the Dengue virus type 2 NS2B-NS3 protease was a kind gift of Dr. Subhash Vasudevan (Program in Emerging Infectious Diseases, DUKE-NUS Graduate Medical School, Singapore). DV NS2B-NS3 proteinase was expressed purified and refolded to restore its functional activity as described previously, [70]. The expression of the soluble C-terminally truncated human furin construct in Sf9 insect cells (an ovarian cell line from fall armyworm Spodoptera frugiperda; Invitrogen, Carlsbad, CA) infected with the recombinant baculovirus and purification of soluble furin from the medium were described earlier. Original human hepatocarcinoma Huh7 cells were obtained from ATCC (Manassas, VA).
# (§2) The NS3/4A activity assay was performed at 37°C in triplicate in wells of a 96-well plate in 0.2 ml 50 mM HEPES, pH 7.5, containing 100 mM NaCl, 10 mM DTT, 20% glycerol, the Ac-DE-D(Edans)-EE-Abu-ψ-[COO]-AS-K(Dabsyl)-NH2 substrate (10 µM) and the NS3/4A enzyme (10 nM). Reaction velocity was monitored continuously at λex = 355 nm and λem = 500 nm for 10 min using a Spectramax Gemini EM fluorescence spectrophotometer (Molecular Devices, Sunnyvale, CA) and the initial rate of reaction v was recorded for each reaction. […] Compound stock solutions (10 mM) were made in 100% DMSO. Stocks were then diluted using the assay buffer. As a result, the final DMSO concentration was always below 1% in the assay reactions.
# (§3) To measure the inhibitory potency of the compounds, their increasing concentrations were pre-incubated with the individual proteinases in the corresponding buffer for 30 min at ambient temperature. At least, 7–9 different concentrations were used for each inhibitor. The residual activity of the enzymes was then measured as above. The IC50 values of the inhibitory compounds were calculated by determining the concentrations of the compounds needed to inhibit 50% of the enzyme activity against the peptide substrate. GraphPad Prism was used as fitting software.
row,Compound,NS3/4A A156T FC
1,Oc1ccccc1-c1nnc2sc3c(Cl)c4nn5c(-c6ccccc6O)nnc5sc4c(Cl)c3nn12 [Compound 4],18.17
2,Clc1ccc(Nc2nc(SCc3ccccc3)nc3n[nH]c(Cc4nc5ccccc5s4)c23)cc1 [Compound 5],48.95
3,COc1cc(C2C(C(=O)Nc3ccc(Cl)c(Cl)c3)=C(C)NC(C)=C2C(=O)Nc2ccc(Cl)c(Cl)c2)ccc1O [Compound 8],9.2
4,Cc1n[nH]c(=S)n1Nc1nc(SCc2ccccc2)nc2n[nH]c(Cc3nn[nH]n3)c12 [Compound 3],45.14

# Molecular target: T1, NS3/4A D168A (Hepatitis C virus genotype 1b, UniProt O92972, D1194A)
# T1 construct: The NS3/4A construct represented the individual NS3 proteinase domain N-terminally fused with an NS4A co-factor; 6xHis; purchased AnaSpec (Fremont, CA)
# Experiment: not given
# Assay type: biochemical, HCV genotype 1b, strain HC-J4
# Conditions: recombinant D168A mutant, FRET peptide substrate
# Source text: as §1, §2, §3
row,Compound,IC50 [µM]
1,Oc1ccccc1-c1nnc2sc3c(Cl)c4nn5c(-c6ccccc6O)nnc5sc4c(Cl)c3nn12 [Compound 4],3.35
2,Clc1ccc(Nc2nc(SCc3ccccc3)nc3n[nH]c(Cc4nc5ccccc5s4)c23)cc1 [Compound 5],12.7
3,COc1cc(C2C(C(=O)Nc3ccc(Cl)c(Cl)c3)=C(C)NC(C)=C2C(=O)Nc2ccc(Cl)c(Cl)c2)ccc1O [Compound 8],3.02
4,Cc1n[nH]c(=S)n1Nc1nc(SCc2ccccc2)nc2n[nH]c(Cc3nn[nH]n3)c12 [Compound 3],8.4

# Molecular target: T2, NS3/4A R155K (Hepatitis C virus genotype 1b, UniProt O92972, R1181K)
# T2 construct: The NS3/4A construct represented the individual NS3 proteinase domain N-terminally fused with an NS4A co-factor; 6xHis; purchased AnaSpec (Fremont, CA)
# Experiment: not given
# Assay type: biochemical, HCV genotype 1b, strain HC-J4
# Conditions: recombinant R155K mutant, FRET peptide substrate
# Source text: as §1, §2, §3
row,Compound,IC50 [µM]
1,Oc1ccccc1-c1nnc2sc3c(Cl)c4nn5c(-c6ccccc6O)nnc5sc4c(Cl)c3nn12 [Compound 4],3.73
2,Clc1ccc(Nc2nc(SCc3ccccc3)nc3n[nH]c(Cc4nc5ccccc5s4)c23)cc1 [Compound 5],9.64
3,COc1cc(C2C(C(=O)Nc3ccc(Cl)c(Cl)c3)=C(C)NC(C)=C2C(=O)Nc2ccc(Cl)c(Cl)c2)ccc1O [Compound 8],10.9
4,Cc1n[nH]c(=S)n1Nc1nc(SCc2ccccc2)nc2n[nH]c(Cc3nn[nH]n3)c12 [Compound 3],5.53

# Test system: NS3/4A R155K
# Experiment: not given
# Assay type: biochemical, HCV genotype 1b, strain HC-J4
# Conditions: fold change in IC50 for the mutant compared to WT
# Source text: as §1, §2, §3
row,Compound,NS3/4A R155K FC
1,Oc1ccccc1-c1nnc2sc3c(Cl)c4nn5c(-c6ccccc6O)nnc5sc4c(Cl)c3nn12 [Compound 4],10.4
2,Clc1ccc(Nc2nc(SCc3ccccc3)nc3n[nH]c(Cc4nc5ccccc5s4)c23)cc1 [Compound 5],25.4
3,COc1cc(C2C(C(=O)Nc3ccc(Cl)c(Cl)c3)=C(C)NC(C)=C2C(=O)Nc2ccc(Cl)c(Cl)c2)ccc1O [Compound 8],5.7
4,Cc1n[nH]c(=S)n1Nc1nc(SCc2ccccc2)nc2n[nH]c(Cc3nn[nH]n3)c12 [Compound 3],15.4

# Molecular target: WNV NS2B-NS3 proteinase
# Experiment: WNV NS2B-NS3 proteinase activity assay (cross-reactivity)
# Assay type: biochemical, West Nile virus (strain NY99)
# Conditions: pyroglutamic acid-Arg-Thr-Lys-Arg-7-amino-4-methylcoumarin substrate
# Source text: Reagents were purchased from Sigma unless indicated otherwise. The FRET substrate Ac-DE-D(Edans)-EE-Abu-ψ-[COO]-AS-K(Dabsyl)-NH2, purified recombinant wild-type NS3/4A from HCV genotype 1b, strain HC-J4, and the mutants with the V36M, R155K, A156T, D168A and V170A resistance mutations were from AnaSpec (Fremont, CA). The NS3/4A construct represented the individual NS3 proteinase domain N-terminally fused with an NS4A co-factor and tagged with a 6xHis tag. NS3/4A was in active form and the pre-activation by pep-4A or pep4AK was not necessary. Pyroglutamic acid-Arg-Thr-Lys-Arg-7-amino-4-methylcoumarin was from Peptides International (Louisville, KY). West Nile virus NS2B-NS3 proteinase (strain NY99) was expressed, purified and refolded to restore its functional activity as described earlier. The pET15b-Den2-CF40-Gly-NS3pro 185 plasmid encoding the Dengue virus type 2 NS2B-NS3 protease was a kind gift of Dr. Subhash Vasudevan (Program in Emerging Infectious Diseases, DUKE-NUS Graduate Medical School, Singapore). DV NS2B-NS3 proteinase was expressed purified and refolded to restore its functional activity as described previously, [70]. The expression of the soluble C-terminally truncated human furin construct in Sf9 insect cells (an ovarian cell line from fall armyworm Spodoptera frugiperda; Invitrogen, Carlsbad, CA) infected with the recombinant baculovirus and purification of soluble furin from the medium were described earlier. Original human hepatocarcinoma Huh7 cells were obtained from ATCC (Manassas, VA).
# The activity of furin and both WNV and DV2 NS2B-NS3 proteinases (10 nM each) was measured in triplicate in 0.2 ml 20 mM Tris-HCl buffer, pH 8.0, containing 20% glycerol and 0.005% Brij 35 (for furin – 100 mM HEPES, pH 7.5, containing 1 mM CaCl2, 1 mM β-mercaptoethanol and 0.005% Brij 35) and pyroglutamic acid-Arg-Thr-Lys-Arg-7-amino-4-methylcoumarin (10 µM) as a substrate (λex = 360 nm; λem = 465 nm) as described earlier.
# as §3
row,Compound,IC50 [µM]
1,Oc1ccccc1-c1nnc2sc3c(Cl)c4nn5c(-c6ccccc6O)nnc5sc4c(Cl)c3nn12 [Compound 4],3.7
2,Clc1ccc(Nc2nc(SCc3ccccc3)nc3n[nH]c(Cc4nc5ccccc5s4)c23)cc1 [Compound 5],23.7
3,COc1cc(C2C(C(=O)Nc3ccc(Cl)c(Cl)c3)=C(C)NC(C)=C2C(=O)Nc2ccc(Cl)c(Cl)c2)ccc1O [Compound 8],21.8
4,Cc1n[nH]c(=S)n1Nc1nc(SCc2ccccc2)nc2n[nH]c(Cc3nn[nH]n3)c12 [Compound 3],18.2

# Reference: PMC3388044, “Probing of Exosites Leads to Novel Inhibitor Scaffolds of HCV NS3/4A Proteinase” (PLoS ONE, 2012)
